Measurements: patent US20250026752A1, “POSITIVE ALLOSTERIC MODULATORS OF THE MUSCARINIC ACETYLCHOLINE RECEPTOR M4” (Vanderbilt University, priority 2021, published 2025)

Target: T1, human mAChR M4 (Homo sapiens, UniProt P08173)
T1 construct: expressed in transfected cells; host or cells: CHO-K1 (ATCC), stably expressing hM4 and Gqi5
T1 sequence (P08173 1-479): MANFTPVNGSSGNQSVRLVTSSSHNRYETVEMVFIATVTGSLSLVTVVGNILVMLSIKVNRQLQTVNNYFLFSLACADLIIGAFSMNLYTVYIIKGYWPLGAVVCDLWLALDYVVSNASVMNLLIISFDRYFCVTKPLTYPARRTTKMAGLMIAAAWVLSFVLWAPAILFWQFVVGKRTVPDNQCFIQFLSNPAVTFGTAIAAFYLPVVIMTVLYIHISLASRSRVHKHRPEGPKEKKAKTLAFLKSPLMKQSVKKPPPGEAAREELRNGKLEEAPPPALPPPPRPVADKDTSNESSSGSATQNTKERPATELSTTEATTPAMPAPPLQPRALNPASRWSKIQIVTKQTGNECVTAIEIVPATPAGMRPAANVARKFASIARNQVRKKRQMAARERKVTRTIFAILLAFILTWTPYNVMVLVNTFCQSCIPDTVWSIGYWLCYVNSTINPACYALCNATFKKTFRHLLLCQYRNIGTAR
Assay: mAChR M4 cell-based functional assay: calcium flux (Fluo-4, FDSS), positive allosteric modulator activity on the EC20 acetylcholine response, hM4-Gqi5 CHO-K1 cells
Conditions: for Emax at 30 µM: CHO-K1, human M4, % ACh maximum at 30 μM; for EC50: human M4, PAM activity on EC20 acetylcholine response, calcium flux, read-out: Human M4 EC50
Method: Human M4 cDNA, along with the chimeric G protein Gqi5, were transfected into Chinese hamster ovary (CHO-K1) cells purchased from the American Type Culture Collection using commercially available Lipofectamine 2000 transfection reagent (Dalby, B. et al., Methods (2004) 33(2), 95-103). hM4-Gqi5 cells were grown in Ham's F-12 medium containing 10% heat-inactivated fetal bovine serum (FBS), 20 mM […], 50 μg/mL G418 sulfate (CAS #108321-42-2), and 500 μg/mL Hygromycin B. rM4-Gqi5 cells were grown in DMEM containing 10% heat-inactivated FBS, 20 mM HEPES, 400 μg/mL G418 sulfate, and 500 μg/mL Hygromycin B.
For high throughput measurement of agonist-evoked increases in intracellular calcium, CHO-K1 cells stably expressing muscarinic receptors were plated in growth medium lacking G418 sulfate and hygromycin at 15,000 cells/20 μL/well in Greiner 384-well black-walled, tissue culture (TC)-treated, clear-bottom plates (VWR). Cells were incubated overnight at 37° C. and 5% C02. The next day, cells were washed using an ELX 405 (BioTek) with assay buffer; the final volume was then aspirated to 20 μL. Next, 20 μL of a 2.3 μM stock of Fluo-4/acetoxymethyl ester (Invitrogen, Carlsbad, CA), prepared as a 2.3 mM stock in DMSO and mixed in a 1:1 ratio with 10% (w/v) Pluronic F-127 and diluted in assay buffer, was added to the wells and the cell plates were incubated for 50 minutes at 37° C. and 5% C02. Dye was removed by washing with the ELX 405 and the final volume was aspirated to 20 μL. Compound master plates were formatted in an 11 point concentration-response curve (CRC) format (1:3 dilutions) in 100% DMSO with a starting concentration of 10 mM using a BRAVO liquid handler (Agilent). Test compound CRCs were then transferred to daughter plates (240 nL) using the Echo acoustic plate reformatter (Labcyte, Sunnyvale, CA) and then diluted into assay buffer (40 μL) to a 2× stock using a Thermo Fisher Combi (Thermo Fisher Scientific, Waltham, MA).
Calcium flux was measured using the Functional Drug Screening System (FDSS) 6000 or 7000 (Hamamatsu Corporation, Tokyo, Japan) as an increase in the fluorescent static ratio. Compounds were applied to cells (20 μL, 2×) using the automated system of the FDSS at 2-4 seconds into the protocol and the data were collected at 1 Hz. At 144 seconds, 10 μL of an EC20 concentration of the muscarinic receptor agonist acetylcholine was added (5×), followed by the addition of 12 μL of an EC80 concentration of acetylcholine at the 230 second time point (5×). Agonist activity was analyzed as a concentration-dependent increase in calcium mobilization upon compound addition. Positive allosteric modulator activity was analyzed as a concentration-dependent increase in the EC20 acetylcholine response. With the acetylcholine EC20 set as baseline, the test compound EC50 is determined as the concentration that produces an increase above baseline of 50% of the maximum increase in acetylcholine response elicted by the test compound. Antagonist activity was analyzed as a concentration-dependent decrease in the ECso acetylcholine response. Concentration-response curves were generated using a four-parameter logistical equation in XLFit curve fitting software (IDBS, Bridgewater, NJ) for Excel (Microsoft, Redmond, WA) or Prism (GraphPad Software, Inc., San Diego, CA).
Compounds were synthesized as described above. Activity (EC50 and Emax) was determined in the mAChR M4 cell-based functional assay as described above and the data are shown in Table 4. The compound numbers correspond to the compound numbers used in Examples 1-33 and Tables 1, 2, and 3.

SMILES | Emax at 30 µM | EC50
FC(F)(F)c1ccc(-c2cnc3c(c2)CN(c2ncnc4ccc(Cl)cc24)CC3)cn1 [Compound 44, 6-chloro-4-[3-[6-(trifluoromethyl)-3-pyridyl]-7,8-dihydro-5H-1,6-naphthyridin-6-yl]quinazoline] | 59% | 470 nM
Cc1nc(N2CCc3ncc(-c4ccnn4C)cc3C2)c2cc(Cl)ccc2n1 [Compound 45, 6-chloro-2-methyl-4-[3-(2-methylpyrazol-3-yl)-7,8-dihydro-5H-1,6-naphthyridin-6-yl]quinazoline] | 98% | 60 nM
Cc1nc(N2CCc3ncc(-c4cnn(C)c4)cc3C2)c2cc(Cl)ccc2n1 [Compound 46, 6-chloro-2-methyl-4-[3-(1-methylpyrazol-4-yl)-7,8-dihydro-5H-1,6-naphthyridin-6-yl]quinazoline] | 97% | 170 nM
Cc1nc(N2CCc3ncc(-c4c(C)noc4C)cc3C2)c2cc(Cl)ccc2n1 [Compound 47, 4-[6-(6-chloro-2-methyl-quinazolin-4-yl)-7,8-dihydro-5H-1,6-naphthyridin-3-yl]-3,5-dimethyl-isoxazole] | 99% | 140 nM
Cc1nc(N2CCc3ncc(-c4cnc(C)s4)cc3C2)c2cc(Cl)ccc2n1 [Compound 48, 5-[6-(6-chloro-2-methyl-quinazolin-4-yl)-7,8-dihydro-5H-1,6-naphthyridin-3-yl]-2-methyl-thiazole] | 92% | 270 nM
Cc1nc(N2CCc3ncc(-c4ccc(N(C)C)nc4)cc3C2)c2cc(Cl)ccc2n1 [Compound 49, 5-[6-(6-chloro-2-methyl-quinazolin-4-yl)-7,8-dihydro-5H-1,6-naphthyridin-3-yl]-N,N-dimethyl-pyridin-2-amine] | 81% | 1230 nM
Cc1nc(N2CCc3ncc(-c4ccc(C5CC5)nc4)cc3C2)c2cc(Cl)ccc2n1 [Compound 50, 6-chloro-4-[3-(6-cyclopropyl-3-pyridyl)-7,8-dihydro-5H-1,6-naphthyridin-6-yl]-2-methyl-quinazoline] | 83% | 1070 nM
Cc1ccc(-c2cnc3c(c2)CN(c2nc(C)nc4ccc(Cl)cc24)CC3)cn1 [Compound 51, 6-chloro-2-methyl-4-[3-(6-methyl-3-pyridyl)-7,8-dihydro-5H-1,6-naphthyridin-6-yl]quinazoline] | 95% | 290 nM
Cc1ncc(-c2cnc3c(c2)CN(c2ncnc4cc(F)c(F)cc24)CC3)s1 [Compound 52, 5-[6-(6,7-difluoroquinazolin-4-yl)-7,8-dihydro-5H-1,6-naphthyridin-3-yl]-2-methyl-thiazole] | 87% | 80 nM
Cc1ccc(-c2cnc3c(c2)CN(c2ncnc4cc(F)c(F)cc24)CC3)cn1 [Compound 53, 6,7-difluoro-4-[3-(6-methyl-3-pyridyl)-7,8-dihydro-5H-1,6-naphthyridin-6-yl]quinazoline] | 84% | 130 nM
Fc1cc2ncnc(N3CCc4ncc(-c5cnn(C6CC6)c5)cc4C3)c2cc1F [Compound 54, 4-[3-(1-cyclopropylpyrazol-4-yl)-7,8-dihydro-5H-1,6-naphthyridin-6-yl]-6,7-difluoro-quinazoline] | 85% | 200 nM
Cc1ccc2nc(C)nc(N3CCc4ncc(-c5cnc(C)s5)cc4C3)c2c1 [Compound 55, 5-[6-(2,6-dimethylquinazolin-4-yl)-7,8-dihydro-5H-1,6-naphthyridin-3-yl]-2-methyl-thiazole] | 92% | 480 nM
Cc1nc(N2CCc3ncc(-c4cnc(C)s4)cc3C2)c2cc(C(F)(F)F)ccc2n1 [Compound 56, 2-methyl-5-[6-[2-methyl-6-(trifluoromethyl)quinazolin-4-yl]-7,8-dihydro-5H-1,6-naphthyridin-3-yl]thiazole] | 45% | 1930 nM
Cc1nc(N2CCc3ncc(-c4cn(C)nc4C)cc3C2)c2cc(C(F)(F)F)ccc2n1 [Compound 57, 4-[3-(1,3-dimethylpyrazol-4-yl)-7,8-dihydro-5H-1,6-naphthyridin-6-yl]-2-methyl-6-(trifluoromethyl)quinazoline] | 59% | 2890 nM
Cc1ccc(-c2cnc3c(c2)CN(c2nc(C)nc4ccc(C(F)(F)F)cc24)CC3)cn1 [Compound 58, 2-methyl-4-[3-(6-methyl-3-pyridyl)-7,8-dihydro-5H-1,6-naphthyridin-6-yl]-6-(trifluoromethyl)quinazoline] | 45% | 1220 nM
Cc1nc(N2CCc3ncc(-c4cnn(C5CC5)c4)cc3C2)c2cc(C(F)(F)F)ccc2n1 [Compound 59, 4-[3-(1-cyclopropylpyrazol-4-yl)-7,8-dihydro-5H-1,6-naphthyridin-6-yl]-2-methyl-6-(trifluoromethyl)quinazoline] | 58% | 1970 nM
COc1cc2c(N3CCc4ncc(-c5cn(C)nc5C)cc4C3)nc(Cl)nc2cc1F [Compound 60, 2-chloro-4-[3-(1,3-dimethylpyrazol-4-yl)-7,8-dihydro-5H-1,6-naphthyridin-6-yl]-7-fluoro-6-methoxy-quinazoline] | 52% | 510 nM
COc1cc2c(N3CCc4ncc(-c5cn(C)nc5C)cc4C3)nc(C)nc2cc1F [Compound 61, 4-[3-(1,3-dimethylpyrazol-4-yl)-7,8-dihydro-5H-1,6-naphthyridin-6-yl]-7-fluoro-6-methoxy-2-methyl-quinazoline] | 57% | 450 nM
Cn1cc(-c2cnc3c(c2)CN(c2nc(Cl)nc4cc(Cl)c(F)cc24)CC3)cn1 [Compound 62, 2,7-dichloro-6-fluoro-4-[3-(1-methylpyrazol-4-yl)-7,8-dihydro-5H-1,6-naphthyridin-6-yl]quinazoline] | 34% | 410 nM
Cc1ccc(-c2cnc3c(c2)CN(c2nc(Cl)nc4cc(Cl)c(F)cc24)CC3)cn1 [Compound 63, 2,7-dichloro-6-fluoro-4-[3-(6-methyl-3-pyridyl)-7,8-dihydro-5H-1,6-naphthyridin-6-yl]quinazoline] | 26% | 400 nM
Cc1cn(C)nc1-c1cnc2c(c1)CN(c1nc(C(F)(F)F)nc3ccc(F)cc13)CC2 [Compound 64, 4-[3-(1,4-dimethylpyrazol-3-yl)-7,8-dihydro-5H-1,6-naphthyridin-6-yl]-6-fluoro-2-(trifluoromethyl)quinazoline] | 69% | 510 nM
Fc1ccc2nc(C(F)(F)F)nc(N3CCc4ncc(-c5ccn(C6CC6)n5)cc4C3)c2c1 [Compound 65, 4-[3-(1-cyclopropylpyrazol-3-yl)-7,8-dihydro-5H-1,6-naphthyridin-6-yl]-6-fluoro-2-(trifluoromethyl)quinazoline] | 52% | 1380 nM
